Measured values: US6767738B1, “Method of isolating adult mammalian CNS-derived progenitor stem cells using density gradient centrifugation” (The Salk Institute for Biological Studies, priority 1999, dated 2004)

System: PERCOLL isolated cells
Experiment: Proliferation of PERCOLL isolated whole brain cells
Format: cell-based, rat
Settings: 20 ng/ml bFGF in vitro
Experimental: Dissection. Adult female Fischer 344 rats (4-6 months of age) were anesthetized with a mixture of ketamine (44 mg/kg), acepromazine (0.75 mg/kg), and xylazine (4 mg/kg) in 0.9% NaCl and decapitated. The brains were removed and placed into cold phosphate-buffered saline (PBS).
Tissue Preparation. A cell suspension was obtained by pooling the brains from 6 animals from which the cerebella had been trimmed away. The remaining brain tissue was then weighed. The brains were diced into small fragments, and then digested for 40-50 min at 37° C. in Hanks' balanced salt solution containing 0.1% grade II neutral protease (Boehringer Mannheim), 0.01% papain (Worthington), and 0.01% Dnase I (Worthington). The mixture was shaken every five minutes. Every fifteen minutes during the digestion, the tissues were gently disrupted by pipetting the digestion reaction mixture through a 5-ml pipette. The tissue was then rinsed two times with DMEM/F12 containing 10% […] bovine serum, to inactivate digestive enzymes, and filtered through nylon mesh (Nitex, 100 μm pore size), to remove undissociated tissue. The filtered cells were resuspended to a final volume of 10 ml in DMEM/F12/10% FBS.
PERCOLL™ (polyvinylpyrrolidone-coated silica colloids) density gradient preparation and centrifugation. […]

Substance: FGF-2: basic fibroblast growth factor, human recombinant, prepared in E. coli
- proliferation response: inducible to proliferate
